Data from patent US12643910B2, “Substituted pyrazolo[3,4-b]pyridines as ectonucleotide pyrophosphatase/phosphodiesterase 1 (ENPP1) modulators” (SANFORD BURNHAM PREBYS MEDICAL DISCOVERY INSTITUTE, priority 2019, dated 2026).

Assays:
[1] = target: T1, ENPP3 (Homo sapiens, UniProt O14638); assay: ENPP3 Km ATP assay; format: biochemical; conditions: ATP at Km
T1 sequence (O14638 1-875): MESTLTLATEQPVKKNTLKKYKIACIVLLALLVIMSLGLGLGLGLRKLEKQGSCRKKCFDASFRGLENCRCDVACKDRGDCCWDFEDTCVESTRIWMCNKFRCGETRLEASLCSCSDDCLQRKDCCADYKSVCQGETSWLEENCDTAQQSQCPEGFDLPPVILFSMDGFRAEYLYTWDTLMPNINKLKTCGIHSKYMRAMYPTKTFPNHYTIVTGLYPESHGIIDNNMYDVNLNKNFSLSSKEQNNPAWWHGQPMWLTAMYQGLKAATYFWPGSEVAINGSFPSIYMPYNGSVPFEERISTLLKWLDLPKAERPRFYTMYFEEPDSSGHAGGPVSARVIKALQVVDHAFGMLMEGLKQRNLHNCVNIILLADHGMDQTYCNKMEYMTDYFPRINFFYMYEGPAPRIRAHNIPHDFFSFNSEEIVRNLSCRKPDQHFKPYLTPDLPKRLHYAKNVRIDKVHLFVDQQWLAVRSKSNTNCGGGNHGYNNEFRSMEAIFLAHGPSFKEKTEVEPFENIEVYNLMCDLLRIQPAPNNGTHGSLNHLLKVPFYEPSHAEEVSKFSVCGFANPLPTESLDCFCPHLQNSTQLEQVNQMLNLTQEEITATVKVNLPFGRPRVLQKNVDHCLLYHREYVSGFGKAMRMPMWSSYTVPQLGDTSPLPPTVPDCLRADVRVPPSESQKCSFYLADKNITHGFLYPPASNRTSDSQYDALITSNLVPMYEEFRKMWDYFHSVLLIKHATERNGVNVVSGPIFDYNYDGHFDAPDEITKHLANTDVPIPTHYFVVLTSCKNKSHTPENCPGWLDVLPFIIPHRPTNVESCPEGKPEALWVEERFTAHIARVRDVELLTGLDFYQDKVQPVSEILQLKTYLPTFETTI

[2] = target: T2, human ENPP1 (Homo sapiens, UniProt P22413); assay: ENPP1 assay with ATP substrate (Transcreener AMP2/GMP2 TR-FRET); format: biochemical; conditions: 1 hour at room temperature
T2 construct: made in house
T2 sequence (P22413 1-925): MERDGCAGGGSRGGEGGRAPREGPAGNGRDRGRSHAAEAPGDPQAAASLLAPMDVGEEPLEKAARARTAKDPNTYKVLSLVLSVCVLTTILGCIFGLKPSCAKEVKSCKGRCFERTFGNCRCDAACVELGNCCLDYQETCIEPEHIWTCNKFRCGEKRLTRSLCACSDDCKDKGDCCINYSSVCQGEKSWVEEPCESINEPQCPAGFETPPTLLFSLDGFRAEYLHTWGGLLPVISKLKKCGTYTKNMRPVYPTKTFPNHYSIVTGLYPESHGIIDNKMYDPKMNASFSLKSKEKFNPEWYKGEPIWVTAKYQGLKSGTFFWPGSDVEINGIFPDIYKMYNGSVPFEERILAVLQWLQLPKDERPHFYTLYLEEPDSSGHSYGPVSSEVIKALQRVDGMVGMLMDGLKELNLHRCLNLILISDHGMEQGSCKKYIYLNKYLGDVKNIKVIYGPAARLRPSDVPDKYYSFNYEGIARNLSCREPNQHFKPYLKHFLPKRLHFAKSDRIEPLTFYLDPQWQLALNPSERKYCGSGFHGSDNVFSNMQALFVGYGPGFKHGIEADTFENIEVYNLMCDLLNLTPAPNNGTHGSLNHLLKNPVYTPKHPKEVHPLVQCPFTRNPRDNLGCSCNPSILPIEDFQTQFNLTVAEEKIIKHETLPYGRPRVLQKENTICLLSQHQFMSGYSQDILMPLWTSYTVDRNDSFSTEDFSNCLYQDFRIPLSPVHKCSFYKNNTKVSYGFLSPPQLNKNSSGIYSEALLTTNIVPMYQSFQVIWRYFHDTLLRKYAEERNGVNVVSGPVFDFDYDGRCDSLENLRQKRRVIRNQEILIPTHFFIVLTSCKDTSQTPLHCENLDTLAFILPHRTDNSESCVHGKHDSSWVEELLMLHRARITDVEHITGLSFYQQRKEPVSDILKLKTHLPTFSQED
In short: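 Reaction ran 1 h at room temperature in pH 7.5 Tris with MgCl2, TCEP, Tween 20 and 1% DMSO. ATP was added as a 300 nM stock and enzyme as an 8.5 μM stock. After EDTA stop, AMP was read by TR-FRET tracer displacement. Percent inhibition used enzyme/no-enzyme controls; IC50 was fitted with a variable slope.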

| Compound | IC50 [1] [µM] | IC50 [2] [µM] |
| --- | --- | --- |
| NS(=O)(=O)c1ccc(CNc2nc(Cl)nc3c2cnn3C2CC2)cc1 [Example 2.84, 4-((6-Chloro-1-cyclopropyl-1H-pyrazolo[3,4-d]pyrimidin-4-yl)aminomethyl)-benzenesulfonamide] | 1 to 20 | < 0.1 |
| NS(=O)(=O)c1ccc(CNc2ncnc3scc(-c4ccccc4)c23)s1 [Example 1.28, 5-(((5-Phenylthieno[2,3-d]pyrimidin-4-yl)amino)methyl)thiophene-2-sulfonamide] | > 20 | 1 to 20 |
| Cn1ncc2c(NCc3ccc(S(N)(=O)=O)cc3)nc(NC3CC3)nc21 [Example 2.35, 4-(((6-(Cyclopropylamino)-1-methyl-1H-pyrazolo[3,4-d]pyrimidin-4-yl)amino)methyl)-benzenesulfonamide] | 0.1 to 1 | 0.1 to 1 |
| Cn1ncc2c(NCc3ccc(S(N)(=O)=O)cc3)nncc21 [Example 2.56, 4-(((1-Methyl-1H-pyrazolo[3,4-d]pyridazin-4-yl)amino)methyl)benzenesulfonamide] | > 20 | > 20 |
| Cc1csc2c(N3CCC(NCCCc4ccncc4)C3)ncnc12 (centres unmarked) [Example 3.29, 1-(7-Methylthieno[3,2-d]pyrimidin-4-yl)-N-(3-(pyridin-4-yl)propyl)pyrrolidin-3-amine] | > 20 | 0.1 to 1 |
| NS(=O)(=O)c1ccc(CNc2nc(-c3ccccn3)nc3scc(-c4ccccc4)c23)cc1Cl [Example 1.18, 2-Chloro-4-(((5-phenyl-2-(pyridin-2-yl)thieno[2,3-d]pyrimidin-4-yl)amino)methyl)-benzenesulfonamide] | 0.1 to 1 | < 0.1 |
| Cn1ncc2c(NCc3ccc(S(N)(=O)=O)cc3)nc(Nc3ccccc3)nc21 [Example 2.50, 4-(((1-Methyl-6-(phenylamino)-1H-pyrazolo[3,4-d]pyrimidin-4-yl)amino)methyl)-benzenesulfonamide] | 0.1 to 1 | < 0.1 |
| Cn1ncc2c(NCc3ccc(S(N)(=O)=O)cc3)nc(-c3ccccn3)nc21 [Example 2.10, 4-(((1-Methyl-6-(pyridin-2-yl)-1H-pyrazolo[3,4-d]pyrimidin-4-yl)amino)methyl)-benzenesulfonamide] | 1 to 20 | < 0.1 |
| Cn1nc(Cl)c2c(NCc3ccc(S(N)(=O)=O)cc3)ncnc21 [Example 2.90, 4-((3-Chloro-1-methyl-1H-pyrazolo[3,4-d]pyrimidin-4-yl)aminomethyl)-benzenesulfonamide] | 0.1 to 1 | 0.1 to 1 |
| Cc1csc2c(N3CCC(NCCCc4ccc(F)cc4)CC3)ncnc12 [Example 3.5, N-(3-(4-Fluorophenyl)propyl)-1-(7-methylthieno[3,2-d]pyrimidin-4-yl)piperidin-4-amine] | > 20 | 0.1 to 1 |
| Cc1nc(NCc2ccc(S(N)(=O)=O)cc2)c2c(-c3ccccc3)csc2n1 [Example 1.44, 4-(((2-Methyl-5-phenylthieno[2,3-d]pyrimidin-4-yl)amino)methyl)benzenesulfonamide] | < 0.1 | < 0.1 |
| Fc1cccc(CNc2nc(-c3ccccn3)nc3scc(-c4ccccc4)c23)c1 [Example 1.9, (3-Fluoro-benzyl)-(5-phenyl-2-pyridin-2-yl-thieno[2,3-d]pyrimidin-4-yl)-amine] | > 20 | > 20 |
| CCCSc1nc(NCc2ccc(S(N)(=O)=O)cc2)c2cnn(C)c2n1 [Example 2.111, 4-((1-Methyl-6-(propylsulfanyl)-1H-pyrazolo[3,4-d]pyrimidin-4-yl)aminomethyl)-benzenesulfonamide] | 0.1 to 1 | < 0.1 |
| Cn1ncc2c(NCc3ccc(S(N)(=O)=O)cc3)nc(N3CCCCC3)nc21 [Example 2.14, 4-(((1-Methyl-6-(piperidin-1-yl)-1H-pyrazolo[3,4-d]pyrimidin-4-yl)amino)methyl)-benzenesulfonamide] | 0.1 to 1 | 1 to 20 |
| Cc1cnccc1CCCNC1CCN(c2ncnc3c(C)csc23)CC1 [Example 3.35, N-(3-(3-Methylpyridin-4-yl)propyl)-1-(7-methylthieno[3,2-d]pyrimidin-4-yl)piperidin-4-amine] | > 20 | 0.1 to 1 |
| CC(C)CCOc1nc(NCc2ccc(S(N)(=O)=O)cc2)c2cnn(C)c2n1 [Example 2.101, 4-((1-Methyl-6-(3-methylbutoxy)-1H-pyrazolo[3,4-d]pyrimidin-4-yl)aminomethyl)-benzenesulfonamide] | 0.1 to 1 | < 0.1 |
| Cn1nc(-c2ccccc2)c2c(NCc3ccc(S(N)(=O)=O)cc3)nc(N3CCCCC3)nc21 [Example 2.132, 4-((1-Methyl-3-phenyl-6-piperidino-1H-pyrazolo[3,4-d]pyrimidin-4-yl)aminomethyl)benzenesulfonamide] | 0.1 to 1 | < 0.1 |
| CN1CCN(c2nc(NCc3ccc(S(N)(=O)=O)cc3)c3cnn(C)c3n2)CC1 [Example 2.34, 4-(((1-Methyl-6-(4-methylpiperazin-1-yl)-1H-pyrazolo[3,4-d]pyrimidin-4-yl)amino)methyl)-benzenesulfonamide] | 0.1 to 1 | > 20 |
| CCNc1nc(NCc2ccc(S(N)(=O)=O)cc2)c2cnn(C)c2n1 [Example 2.49, 4-(((6-(Ethylamino)-1-methyl-1H-pyrazolo[3,4-d]pyrimidin-4-yl)amino)methyl)-benzenesulfonamide] | 0.1 to 1 | 0.1 to 1 |
| Cn1ncc2c(N3CCC(NCCCc4ccncc4)CC3)nc(-c3ccccn3)nc21 [Example 2.20, 1-(1-Methyl-6-(pyridin-2-yl)-1H-pyrazolo[3,4-d]pyrimidin-4-yl)-N-(3-(pyridin-4-yl)propyl)piperidin-4-amine] | > 20 | > 20 |
| CCn1ncc2c(NCc3ccc(S(N)(=O)=O)cc3)nc(Cl)nc21 [Example 2.83, 4-((6-Chloro-1-ethyl-1H-pyrazolo[3,4-d]pyrimidin-4-yl)aminomethyl)benzenesulfonamide] | 1 to 20 | < 0.1 |
| Cc1csc2c(N3CCC(NCCCc4cccnc4)CC3)ncnc12 [Example 3.26, 1-(7-Methylthieno[3,2-d]pyrimidin-4-yl)-N-(3-(pyridin-3-yl)propyl)piperidin-4-amine] | > 20 | 0.1 to 1 |
| NS(=O)(=O)c1ccc(CNc2nc(-c3ccccn3)nc3scc(-c4cccnc4)c23)cc1 [Example 1.22, 4-(((2-(Pyridin-2-yl)-5-(pyridin-3-yl)thieno[2,3-d]pyrimidin-4-yl)amino)methyl)-benzenesulfonamide] | 1 to 20 | < 0.1 |
| COc1cc(S(N)(=O)=O)ccc1CNc1nc(-c2ccccn2)nc2scc(-c3ccccc3)c12 [Example 1.17, 3-Methoxy-4-(((5-phenyl-2-(pyridin-2-yl)thieno[2,3-d]pyrimidin-4-yl)amino)methyl)-benzenesulfonamide] | 1 to 20 | < 0.1 |
| Cc1csc2c(N3CCC(OCCCc4ccc(F)cc4)CC3)ncnc12 [Example 3.45, 4-(4-(3-(4-Fluorophenyl)propoxy)piperidin-1-yl)-7-methylthieno[3,2-d]pyrimidine] | > 20 | > 20 |
